Results from patent US10647680B2, “Urea compound, preparation method therefor and medical use thereof” (Ancureall Pharmaceutical (Shanghai) Co., Ltd., priority 2016, dated 2020).

Assays:
[1] = test system: NCI-H1975 (EGFR L858R/T790M); assay: In vitro growth inhibition (GI50), NCI-H1975; format: cell-based; conditions: Homo sapiens
Source text: (§1) Tumor cell line is an effective cell model for studying the inhibition of tumor cell growth or proliferation in vitro. In the present invention, a representative tumor cell line was selected to determine the cell growth inhibition activity of the present compound. All cell lines used were from ATCC, DSMZ, and the Cell Bank of the Chinese Academy of Sciences. Cell culture conditions and methods were in accordance with the requirements of each cell line. Cells were subcultured in vitro for no more than 3 passages each time, and as required, single-clone purification and identification of cell lines could be carried out.
(§2) The cell culture media used were RPMI1640 (Gibco), MEM (Gibco), McCOY'S5A (Gibco), and IMDM (Gibco). The complete medium was prepared by supplement with 5˜20% fetal calf serum (Gibco), 1% double-antibiotics (10000 units/mL penicillin and 10000 units/mL), 2 mM glutamine or 1 mM sodium pyruvate, respectively.
Human epidermal cancer cell line A431 (EGFR WT, amplification and high expression, from Shanghai Cell Bank of Chinese Academy of Sciences and ATCC), human lung cancer cell line NCI-H292 (EGFR WT, purchased from Shanghai Cell Bank of Chinese Academy of Sciences), NSCLC cell lines PC-9 and HCC827 (EGFR exon19 E746-A750 deletion, two cell lines are sensitive to the first-generation EGFR PTK inhibitor), NSCLC cell line NCI-H1975 (EGFR L858R/T790M and the first-generation EGFR inhibitor resistance, ATCC) were cultured with 1×RPMI1640 complete medium (supplement with 10% FBS), respectively.
(§3) Adherent cells were digested with 0.25% pancreatin-EDTA (Gibco). The suspension cells were collected by centrifugation. The supernatant was discarded and the cell pellet was resuspended and counted. Different cell concentrations (5˜10×10^4 cells/mL) were prepared according to the growth cycle of each cell line and then seeded on a 96-well plate (Corning), 100 μL/well. The cells were incubated overnight at 37° C., 5% CO2. The compounds were added to the cells on the second day with 2 wells in parallel. The final concentration of organic solvent shall not exceed 1%. The cells were continually incubated for 3 to 5 days, and then subjected to MTT assay.
(§4) The compound of the present invention and the control compound were dissolved in DMSO (Sigma) respectively, with the purity of more than 98%. The compound was stored in a concentration of 10 mM at −20° C. and diluted to 2- or 10-fold series prior to use.
(§5) Dojindo CCK8 reagent kit was used as MTT assay. THERMO […] FC meter was used as microplate reader.
(§6) For adherent cells, culture medium was removed and immediately replaced with the fresh prepared medium which contains 10% CCK8 reagent (100 μL/well). For the suspension cells, CCK8 was directly added to 10% of the final concentration. The cells were continually incubated for 1˜4 h. When a dark yellow color could be observed in the solvent control wells, the absorbance value at OD450 nm was measured and the cell growth rate was calculated according to the following formula: Cell Growth Rate (%)=100*(T−T0)/(C−T0) T=optical density of drug treatment cell well—optical density of blank control well; T0=optical density of cell well before drug treatment—optical density of blank control well; C=optical density of cell well of solvent control group—optical density of blank control well. The concentration value of 50% inhibition of cell growth (GI50) was calculated according to the drug concentration and cell growth rate curve. The experiment was independently repeated 1˜3 times, and subject to biological statistical analysis. 4. Experimental Results
Tumor cell growth inhibition test was performed by selecting representative compounds (compounds 4, 11, 12, 16, 27, 68, 71, 77, 79, 89 and 116 of the present invention). The initial concentration of the compound was 5,000 nM, then it was serially diluted by 2-fold or 10-fold to 0.01 nM. The GI50 value of each test compound was calculated according to the GI50 assay and calculation method. […]

[2] = test system: NCI-H460 (KRAS G61H mutant type); assay: In vitro growth inhibition (GI50), NCI-H460; format: cell-based; conditions: Homo sapiens
Source text: as §1, §2
Human large cell lung cancer cell NCI-H460 (KRAS […] mutant type, ATCC), human non-small cell lung cancer cell line H1299 (NRAS Q61K mutant type, ATCC), human melanoma cell line A375 (BRAF V600E mutant type, Shanghai Cell Bank of Chinese Academy of Sciences), human colon cancer cell line HCT116 (KRAS G13D mutant type, Shanghai Cell Bank, Chinese Academy of Sciences) were cultured in a complete medium of 1×RPMI1640 (10% FBS), respectively. Human non-small cell lung cancer cells A549 (KRAS G12S mutant type, Shanghai Cell Bank, Chinese Academy of Sciences) were cultured in a complete medium of 1× Ham's supplemented with 10% FBS, 1% double antibody, and 2 mM glutamine.
as §3, §4, §5, §6
Tumor cell growth inhibition test was performed by selecting representative compounds (compounds 4, 11, 12, 16, 27, 68, 71, 77, 79, 89 and 116 of the present invention). The initial concentration of the compound was 5,000 nM, then it was serially diluted by 2-fold or 10-fold to 0.01 nM. […]

Q: For `CC(C)(C)c1cc(NC(=O)Nc2ccc(-n3cnc4cc(OCCO)ccc43)cc2)no1` [Compound 11, 1-(5-tert-butyl-isoxazol-3-yl)-3-{4-[5-(2-hydroxy-ethoxyl)-benzimidazol-1-yl]-phenyl]-urea], which GI50 [1] is on record?
A: Its GI50 is > 2500 nM.

Q: And the GI50 [2]?
A: The GI50 was > 2500 nM.

Q: Which results are given for `COc1ccc2c(c1)ncn2-c1ccc(NC(=O)Nc2cc(C(C)(C)C)n[nH]2)cc1` [Compound 71, 1-(5-tert-butyl-2H-pyrazol-3-yl)-3-[4-(5-methoxyl-benzimidazol-1-yl)-phenyl]-urea]?
A: GI50 [1]: > 2500 nM; GI50 [2]: > 2500 nM

Q: For `CC(C)(C)c1cc(NC(=O)Nc2ccc(-n3cnc4cc(O)ccc43)cc2)no1` [Compound 4, 1-(5-tert-butyl-isoxazol-3-yl)-3-[4-(5-hydroxy-benzimidazol-1-yl)-phenyl]-urea], which GI50 [1] is on record?
A: Its GI50 is > 2500 nM.

Q: What about the GI50 [2] of the same molecule?
A: Its GI50 is > 2500 nM.

Q: How did the GI50 [1] turn out when `COCCOc1ccc2c(c1)ncn2-c1ccc(NC(=O)Nc2cc(C(C)(C)C)n[nH]2)cc1` [Compound 77, 1-(5-tert-butyl-2H-pyrazol-3-yl)-3-{4-[5-(2-methoxyl-ethoxyl)-benzimidazol-1-yl]-phenyl}-urea] was run?
A: Its GI50 is > 2500 nM.

Q: What about the GI50 [2] of the same molecule?
A: The GI50 was > 2500 nM.

Q: `CC(C)(C)c1cc(NC(=O)Nc2ccc(-n3cnc4cc(OCCO)ccc43)cc2)[nH]n1` [Compound 79, 1-(5-tert-butyl-2H-pyrazol-3-yl)-3-{4-[5-(2-hydroxy-ethoxyl)-benzimidazol-1-yl]-phenyl]urea] was tested. Which GI50 [1] did it give?
A: Its GI50 is > 2500 nM.

Q: What about the GI50 [2] of the same molecule?
A: The GI50 was > 2500 nM.

Q: Which results are given for `CC(C)(C)c1cc(N)n(C(=O)Nc2ccc(-n3cnc4ccccc43)cc2)n1` [Compound 116, 5-amino-3-tert-butyl-pyrazol-1-carboxylic acid (4-benzimidazol-1-yl-phenyl)-amide]?
A: GI50 [1]: > 2500 nM; GI50 [2]: > 2500 nM

Q: `CC(C)(C)c1cc(NC(=O)Nc2ccc(-n3cnc4ccc(OCCN5CCOCC5)cc43)cc2)no1` [Compound 27, 1-(5-tert-butyl-isoxazol-3-yl)-3-{4-[6-(2morpholin-4-yl-ethoxyl)-benzimidazol-1-yl]-phenyl}-urea] was tested. Which GI50 [1] did it give?
A: Its GI50 is > 2500 nM.

Q: What about the GI50 [2] of the same molecule?
A: Its GI50 is > 2500 nM.

Q: With `CC(C)(C)c1cc(NC(=O)Nc2ccc(-n3cnc4ccccc43)cc2)[nH]n1` [Compound 68, 1-(4-benzimidazol-1-yl-phenyl)-3-(5-tert-butyl-2H-pyrazol-3-yl)-urea] as the molecule, how does the GI50 [1] read?
A: The GI50 was > 2500 nM.

Q: What about the GI50 [2] of the same molecule?
A: Its GI50 is > 2500 nM.

Q: Which results are given for `CC(C)(C)c1cc(NC(=O)Nc2ccc(-n3cnc4cc(OCCN5CCOCC5)ccc43)cc2)no1` [Compound 16, 1-(5-tert-butyl-isoxazol-3-yl)-3-{4-[5-(2-morpholin-4-yl-ethoxyl)-benzimidazol-1-yl]-phenyl}-urea]?
A: GI50 [1]: > 2500 nM; GI50 [2]: > 2500 nM

Q: With `CC(C)(C)c1cc(NC(=O)Nc2ccc(-n3cnc4cc(OCCN5CCOCC5)ccc43)cc2)[nH]n1` [Compound 89, 1-(5-tert-butyl-2H-pyrazol-3-yl)-3-{4-[5-(2-morpholin-4-yl-ethoxyl)-benzimidazol-1-yl]-phenyl}-urea] as the molecule, how does the GI50 [1] read?
A: The GI50 was > 2500 nM.

Q: And the GI50 [2]?
A: Its GI50 is > 2500 nM.
